From patent US6156790A, “C-10 carbon-substituted artemisinin-like trioxane compounds having antimalarial, antiproliferative and antitumor activities” (priority 1997, dated 2000)
Blank lines part the entries; values can stand above or below the compound they belong to.

How the values were obtained:
EKVX = assay: NCI 60 cell line screen (SRB), non-small cell lung cancer; type: cell-based; settings: Homo sapiens, read-out: Log10 GI50 (converted)
NCI-H23 = assay: as above; type: cell-based; settings: Homo sapiens, read-out: Log10 GI50 (converted)
UACC-62 = assay: cells; type: cell-based; settings: Homo sapiens, read-out: Log10 TGI (converted)
60 cell line panel = assay: NCI 60 cell line screen, whole panel; type: cell-based; settings: panel
HL-60(TB) = assay: cells; settings: Homo sapiens, HL-60, read-out: Log10 LC50 (converted)
IGROVI = assay: cells; settings: 60 cell, read-out: Log10 GI50 (converted)
ACHN = assay: cells; settings: Homo sapiens
RXF 393 = assay: cells; settings: Homo sapiens
CAKI-1 = assay: NCI 60 cell line screen (SRB), renal cancer; settings: Homo sapiens
[1] = tested on: murine keratinocyte cell line PE; assay: growth inhibition of PE cells (MTT assay); type: cell-based; settings: 100 nanomolar
Experimental: To determine the inhibitory effect of the compositions of the present invention on cell proliferation, screening assays were performed on a murine keratinocyte cell line PE. Cell line PE was chosen for its particular sensitivity to the induction of ornithine decarboxylase (ODC) activity by the extensively characterized tumor promoter TPA. […] PE cell culture medium consisted of Eagle's minimal essential medium without calcium chloride (Whittaker Bioproducts, Walkersville, Mass.) supplemented with 8% chelexed fetal calf serum and 1% antibiotic-antimycotic (Gibco BRL) and the addition of CaCl2 to 0.05 mM Ca^++.
Growth Inhibition. Growth curves, shown in FIGS. 1 and 2, for PE cells treated with calcitriol and the C-10 carbon-substituted dimers 21, 22, 26, 27, and 28 generated by assay for the reduction of the tetrazolium-based compound MTT, see Charmichael, et al., Cancer Res., 47:936-942 (1987). […] PE cells were seeded at a density of 5,000 cells/well in 50 μL of medium into 96-well microtiter plates. Twelve hours later, the medium was removed, and cells were treated with 100 μL of fresh medium into which the appropriate amount of calcitrol or analog dissolved in dimethyl sulfoxide (DMSO) had been added, with the concentration of DMSO held constant at 0.1%. […] At 24-hour intervals following the initial treatment of the cells with compounds, 0.1 mg (50 μL of a 2 mg/mL solution) of MTT was added to each well. After 4 hours, the MTT was removed and DMSO added to dissolve the blue formazan dye. Using a microtiter plate reader, the A505 was then determined and cell number calculated from blank-subtracted absorbance values.

[2] = tested on: chloroquine-sensitive P. falciparum (NF54); assay: In vitro antimalarial activity ([3H]hypoxanthine incorporation); type: cell-based; settings: for IC50: Plasmodium falciparum, NF54; for IC50 compared with artemisinin: in words
Experimental: Activity was determined by measuring the incorporation of [^3 H]hypoxanthine, by the methods of Desjardins and Milhouse, with the following modofications, see […].; Haynes, […]. Antimicrob. Agents Chemother., 16:710 (1979); Milhous, W. K.; Weatherly, […].; Antimicrob. Agents Chemother., 27: 525 (1985). […] Parasitemia was maintained at 0.05-3% and doubling time at approximately 15 hours by twice weekly change of medium and replenishment with fresh erythrocytes. […] Sigma-Aldrich #27,043-1). DMSO solutions were diluted 500-fold in medium, serially diluted in 0.2% DMSO in medium (to maintain constant solvent concentration), then 100 μL aliquots were pipetted into microtiter plate wells (Costar 3595). […] Plates included at least 8 wells of no drug controls (4 with and 4 without DMSO) and 4 wells of uninfected erythrocytes. […] Cells were harvested (Brandel MB-48R) onto GF-C glass filters (Brandel). The filters were washed five times with 3 mL water per sample spot, dried under a heat lamp, and counted (Beckman Model LS-6500) in scintillation cocktail (ICN Cytoscint). Decays per minute (dpm) values were downloaded and analyzed (Power MFacintosh 7200/90; Microsoft Excel 5.0), to yield the mean and standard deviation at each drug concentration.

- IC50 ([2]; survey data (preliminary)): 16 nM
SMILES: C[C@H]1[C@@H](C#Cc2ccc(Cl)cc2)O[C@@H]2O[C@@]3(C)CC[C@H]4[C@H](C)CC[C@@H]1[C@@]24OO3 [Monomer 9, 10β-(4'-Chlorophenylethynyl) deoxoartemisinin]

- IC50 ([2]; survey data (preliminary)): 1.5 nM
- IC50 compared with artemisinin [2]: lower than that of artemisinin
SMILES: C[C@H]1[C@H](c2ccco2)O[C@@H]2O[C@@]3(C)CC[C@H]4[C@H](C)CC[C@@H]1[C@@]24OO3 [Monomer 17]

- IC50 [2]: 5.4 nM
- IC50 compared with artemisinin [2]: lower than that of artemisinin
SMILES: CO[C@H]1O[C@@H]2O[C@@]3(C)CC[C@H]4[C@H](C)CC[C@@H]([C@H]1C)[C@@]24OO3 [Artemether, artemether, reference compound]

- IC50 ([2]; survey data (preliminary)): 11 nM
SMILES: COc1ccc2cc([C@@H]3O[C@@H]4O[C@@]5(C)CC[C@H]6[C@H](C)CC[C@@H]([C@H]3C)[C@@]46OO5)c(OC)cc2c1 [Monomer 15, 10α-(2',7'-dimethoxynaphth-3'-yl)deoxoartemisinin]

- IC50 ([2]; survey data (preliminary)): 8.9 nM
- IC50 compared with artemisinin [2]: lower than that of artemisinin
SMILES: COc1ccc([C@@H]2O[C@@H]3O[C@@]4(C)CC[C@H]5[C@H](C)CC[C@@H]([C@H]2C)[C@@]35OO4)c(OC)c1 [Monomer 13]

- IC50 ([2]; survey data (preliminary)): 8.4 nM
- IC50 compared with artemisinin [2]: lower than that of artemisinin
SMILES: C[C@H]1[C@H](c2cccn2C)O[C@@H]2O[C@@]3(C)CC[C@H]4[C@H](C)CC[C@@H]1[C@@]24OO3 [Monomer 16, 10α-(N-methylpyrrol-2'-yl)deoxoartemisinin]

- IC50 ([2]; survey data (preliminary)): 11 nM
SMILES: COc1cc(OC)c([C@@H]2O[C@@H]3O[C@@]4(C)CC[C@H]5[C@H](C)CC[C@@H]([C@H]2C)[C@@]35OO4)c(OC)c1 [Monomer 14]

Second part, the compound before the results:

SMILES: CC(=O)O[C@H]1C(=O)[C@@]2(C)[C@H]([C@H](OC(=O)c3ccccc3)[C@]3(O)C[C@H](OC(=O)[C@H](O)[C@@H](NC(=O)c4ccccc4)c4ccccc4)C(C)=C1C3(C)C)[C@]1(OC(C)=O)CO[C@@H]1C[C@@H]2O [Paclitaxel, paclitaxel, reference compound]
- GI50 (EKVX): 0.214 nM
- GI50 (NCI-H23): 0.0759 nM
- IC (TGI) (UACC-62): 19500 nM
- GI50 (60 cell line panel; 60 cell, read-out: Log10 GI50 Delta (converted)): 0.0708 nM
- Log10 TGI Delta (60 cell line panel): -4.54
- Log10 TGI Range (60 cell line panel): 7.20
- CC50 (HL-60(TB)): > 29500 nM
- GI50 (IGROVI): 2.45 nM
- CC50 (ACHN; read-out: Log10 LC50 (converted)): 35500 nM
- IC (TGI) (ACHN; read-out: Log10 TGI): 12600 nM
- CC50 (RXF 393; RXF 393, read-out: Log10 LC50 (converted)): > 100000 nM
- IC (TGI) (RXF 393; RXF 393, read-out: Log10 TGI): > 100000 nM
- CC50 (CAKI-1; CAKI-1, read-out: Log10 LC50 (converted)): > 100000 nM
- IC (TGI) (CAKI-1; CAKI-1, read-out: Log10 TGI): 91200 nM

SMILES: C[C@H]1[C@@H](C#Cc2ccc(C#C[C@H]3O[C@@H]4O[C@@]5(C)CC[C@H]6[C@H](C)CC[C@@H]([C@H]3C)[C@@]46OO5)cc2)O[C@@H]2O[C@@]3(C)CC[C@H]4[C@H](C)CC[C@@H]1[C@@]24OO3 [Dimer 28]
- antiproliferative activity compared with calcitriol [1]: at least as antiproliferative as calcitrol

SMILES: COc1cc(OC)c([C@@H]2O[C@@H]3O[C@@]4(C)CC[C@H]5[C@H](C)CC[C@@H]([C@H]2C)[C@@]35OO4)cc1[C@@H]1O[C@@H]2O[C@@]3(C)CC[C@H]4[C@H](C)CC[C@@H]([C@H]1C)[C@@]24OO3 [Dimer 26]
- antiproliferative activity compared with calcitriol [1]: at least as antiproliferative as calcitrol

SMILES: C[C@H]1[C@@H](C#Cc2cccc(C#C[C@H]3O[C@@H]4O[C@@]5(C)CC[C@H]6[C@H](C)CC[C@@H]([C@H]3C)[C@@]46OO5)c2)O[C@@H]2O[C@@]3(C)CC[C@H]4[C@H](C)CC[C@@H]1[C@@]24OO3 [Dimer 27]
- antiproliferative activity compared with calcitriol [1]: at least as antiproliferative as calcitrol
